Reference: patent publication US11185488B2, “Skin external preparation composition for moisturizing skin containing 1,2,3,4,6-penta-O-galloyl-β-D-glucose” (AMOREPACIFIC CORPORATION, priority 2017, dated 2021)

What was measured:
Assay type in all cases: cell-based
filaggrin = assay: Gene expression level of filaggrin (RNA separation and RT-PCR); conditions: neonatal keratinocytes, 1 ppm, 2 days; for Increase in filaggrin expression(%): corrected to RPL13A
Method: Neonatal keratinocytes (obtained from Lonza) was dispensed into a 60 mm cell culture dish at a density of 1.25×10^6 cells/dish using KGM medium, and then cultured at 37° C. in a 5% CO2 incubator up to about 80% confluency. Then, eight compounds including PGG from soybean, green tea, ginseng, and other natural products were selected as test substances (Table 1), and the cells were treated with each of these compounds at 1 ppm and cultured for 2 days. After the culture, the medium was removed, and 1 ml of Trizol (Invitrogen) was added, and mRNA was isolated according to an RNA isolation method of Invitrogen. mRNA was quantified at 260 nm using an ultraviolet detector (Hewlett Packard), and RT-PCR (Reverse Transcription-Polymerase Chain Reaction) was performed. For genetic analysis of each sample, correction was performed based on the complementary gene, RPL13A, and the expression level of filaggrin for each sample is shown in Table 1 below.

involucrin (IVL) = assay: Gene increase experiment for involucrin (IVL) (RNA isolation and RT-PCR); conditions: keratinocytes, 4 days, corrected to RPLP0, FIG. 2
Method: (§1) Neonatal keratinocytes was dispensed into a 60 mm cell culture dish at a density of 1.25×10^6 cells/dish using KGM medium, and then cultured at 37° C. in a 5% CO2 incubator up to about 80% confluency. Then, the keratinocytes were treated with 0.2 ppm or 1 ppm of PGG, cultured for 4 days. After the culture, the medium was removed and 1 ml of Trizol (Invitrogen) was added thereto, and mRNA was isolated according to the RNA isolation method of Invitrogen. After quantifying mRNA at 260 nm using a CV detector (HEWLETT PACKARD), RT-PCR (Reverse transcription-polymerase chain reaction) was performed by using the primers of LOR and IVL (LOR-HS01894962_s1, IVL HS00846307_s1, respectively, both of which were obtained from Life Technologies). For genetic analysis of each sample, the correction was performed based on the complementary gene, RPLP0, and the results are shown in Table 2 below.

loricrin (LOR) = assay: Gene increase experiment for loricrin (LOR) (RNA isolation and RT-PCR); conditions: keratinocytes, 4 days, corrected to RPLP0, FIG. 2
Method: as §1

Neonatal keratinocytes = assay: Evaluation of cytotoxicity of PGG (cell viability); conditions: PGG 0, 1, 2, 4 ppm, cultured 4 days, FIG. 1
Method: Neonatal keratinocytes (obtained from Lonza) was dispensed into a 60 mm cell culture dish at a density of 1.25×10^6 cells/dish using KGM medium, and then cultured at 37° C. in a 5% CO2 incubator up to about 80% confluency. Then, the cells were treated with PGG at concentrations of 0 ppm, 1 ppm, 2 ppm, and 4 ppm, cultured for 4 days, and then the viability of the cells was confirmed.

Row | SMILES | Increase in filaggrin expression(%) (filaggrin) | also measured
1 | COc1cc([C@H]2OC[C@H]3[C@@H]2CO[C@@H]3c2cc(OC)c(O)c(OC)c2)cc(OC)c1O [Syringaresinol] | 103 | 
2 | O=C(OC[C@H]1O[C@@H](OC(=O)c2cc(O)c(O)c(O)c2)[C@H](OC(=O)c2cc(O)c(O)c(O)c2)[C@@H](OC(=O)c2cc(O)c(O)c(O)c2)[C@@H]1OC(=O)c1cc(O)c(O)c(O)c1)c1cc(O)c(O)c(O)c1 [PGG, 1,2,3,4,6-penta-O-galloyl-β-D-glucose] | 229 | expression level of involucrin gene compared to control group (involucrin (IVL); 0.2 ppm): three-fold or more increase; increase of involucrin gene compared to control group (involucrin (IVL); 1 ppm): 5 times; expression level of loricrin gene compared to control group (loricrin (LOR); 0.2 ppm): almost no difference compared to the control group; increase of loricrin gene compared to control group (loricrin (LOR); 1 ppm): ≥ 2 times; rate of increase in the expression of filaggrin versus control group (filaggrin): more than 2 times; cell viability (Neonatal keratinocytes): no significant difference in cell viability
3 | O=c1c(-c2ccc(O)c(O)c2)coc2cc(O)ccc12 [7,3′,4′-trihydroxyisoflavone] | 110 | 
4 | O=c1c(-c2ccc(O)cc2)coc2cc(O)c(O)cc12 [6,7,4′-trihydroxyisoflavone] | 103 | 
5 | Oc1cc(O)c2c(c1)O[C@H](c1ccc(O)c(O)c1)[C@H](O)C2 [(−)-Epicatechin(EC), (−)-Epicatechin] | 108 | 
6 | C[C@@]12C[C@@]3(O)O[C@@H](O1)[C@]1(COC(=O)c4ccccc4)[C@H]3C[C@@]12O[C@@H]1O[C@H](CO)[C@@H](O)[C@H](O)[C@H]1O [Paeoniflorin] | 116 | 
7 | O=c1c(O[C@@H]2O[C@H](CO)[C@@H](O)[C@H](O)[C@H]2O)c(-c2ccc(O)cc2)oc2cc(O)cc(O)c12 [Astragalin] | 105 | 
8 | C[C@]12C[C@@H](O)[C@@H]3C[C@@]1(O[C@@H]1O[C@H](CO)[C@@H](O)[C@H](O)[C@H]1O)[C@@]3(COC(=O)c1ccccc1)C(=O)O2 [Albiflorin] | 107 | 
